Columns and labels:
[1] = tested on: toxicité de groupe due à l'amphétamine; test: Antagonism of amphetamine group toxicity (predictive of antipsychotic activity); type: in vivo, souris Charles River CD1; conditions: Mus musculus, ip; mice, compound i.p. 30 min before amphetamine 30 mg/kg i.p.; mortality over 24 h; confidence limits 10,1 - 26,7; read-out: DE50 (limites de confiance) d'antagonisme de la mortalité due à l'amphétamine
Text: L'activité antipsychotique d'un composé représentatif, le monomaléate de 2-(1-pipérazinyl)pyrimidine, a été déterminée dans le test de l'antagonisme de la toxicité de groupe due à l'amphétamine (J.H. Burn et al., Arch. Int. Pharmacodyn. Ther. 1958, 113, 290).
Le moncmaléate de 2-(1-pipérazinyl)pyrimidine a été administré à des doses croissantes par voie intrapéritonéale à des lots de 10 souris Charles River CD1 pesant 20-22 g et groupées dans des cages de 22 cm de long, 12 cm de large et 12 cm de haute. Trente minutes après l'administration, on a injecté par voie intrapéritonéale de l'amphétamine à la dose de 30 mg/kg. La mortalité des animaux a été évaluée durant les 24 h qui ont suivi l'injection d'amphétamine et comparée, dans chaque groupe, à celle du groupe d'animaux témoins n'ayant reçu que le véhicule (sérum physiologique).
Le tableau I ci-dessous montre la dose efficace médiane (DE50) d'antagonisme de la mortalité due à l'amphétamine.

[2] = tested on: catalepsie provoquée par la prochlorpérazine; test: Antagonism of the onset of prochlorperazine-induced catalepsy (cork test; predictive of antidepressant activity); type: in vivo, rats mâles Wistar; conditions: rats, prochlorperazine 10 mg/kg s.c. 1 h later, read 5 h after
Text: L'activité antidépressive des composés de l'invention a été évaluée dans le test de l'antagonisme vis-à-vis de l'installation de la catalepsie provoquée par la prochlorrérazine (K. Bizière et al., Arzneimittel Forschung, 1982, 32 (II), 824).
Un composé représentatif de l'invention, à savoir le monomaléate de 2-(1-pipérazinyl)pyrimidine, a été administré par voie intrapéritonéale à des groupes de 10 rats mâles Wistar pesant 220-240 g; des animaux de contrôle ont été en même temps traités par du sérum physiologique. Une heure après, les animaux ont reçu, par voie sous-cutanée, de la prochlorpérazine à une dose de […]. Cinq heures après cette administration, le nombre d'animaux cataleptiques a été estimé par le test du bouchon. Ce test consiste à positionner les animaux de telle sorte qu'ils puissent maintenir pendant au moins 20 seconds leurs pattes en appui sur une colonne formée de trois bouchons de liège superposés (hauteur totale 11 cm). Les performances réalisées pour chaque groupe d'animaux ont été comparées à celles du croupe d'animaux témoins n'ayant reçu que le véhicule et la prochlorpérazine.
Le tableau II ci-dessous montre le pourcentage d'antagonisme de l'installation de la catalepsie provoquée par la prochlorpérazine.

[3] = H.W. Stewart et al., J. Org. Chem. 1953, 18, 1478; cited from earlier work
activité antifilariale = conditions: H.W. Stewart et al., J. Org. Chem. 1953, 18, 1478; cited from earlier work

SMILES | ED50 [1] | % d'antagonisme de l'installation de la catalepsie provoquée par la prochlorpérazine ([2]; dose 0,1 mg/kg i.p.) | % d'antagonisme de l'installation de la catalepsie provoquée par la prochlorpérazine ([2]; dose 1 mg/kg i.p.) | activité analgésique [3] | activité antifilariale (activité antifilariale)
c1cnc(N2CCNCC2)nc1 [2-(1-pipérazinyl)pyrimidine monomaléate, monomaléatede 2-(1-pipérazinyl)pyrimidine] | 16.5 mg/kg | 20% | 80% | – | –
c1cnc(N2CCNCC2)nc1 [2-(l-pipérazinyl)pyrimidine] | – | – | – | aucun n'a montré d'activité | aucun n'a montré d'activité

Reference: patent publication EP0115714A1, “Pharmaceutical composition with psychotropic dopaminergic action” (priority 1983, dated 1984)
